From PubChem BioAssay (NCI) come the findings set out here.

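48-hour exposure; five concentrations; linearly interpolated endpoints. Abbreviation: GI50, concentration required for 50% inhibition of growth. TGI denotes the concentration required for complete inhibition of growth.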 Some results are limits rather than exact numbers.

Test systems include ACHN renal; HOP-62 NSCLC; NCI-H522 lung; SK-MEL-28 melanoma; IGROV1 ovarian; MOLT-4 leukemia; UO-31 renal; A549 NSCLC; HCT-116 colon; SK-MEL-5 melanoma.
Test in all cases: inhibition of tumour cell growth, NCI panel, 48 h

`CSc1ncnc2c1ncn2C1OC(CO)C(O)OC1O` (stereo not given): the TGI in the assay with ACHN renal is more than 100 µM; in the assay on HOP-62 NSCLC, 35.4 µM; with NCI-H522 lung, more than 100 µM; in the assay with SK-MEL-28 melanoma, 69.5 µM; in the assay on IGROV1 ovarian, 18.9 µM; with MOLT-4 leukemia, 30.1 µM. Moreover, the TGI was 31.2 µM in the assay with UO-31 renal, more than 100 µM in the assay with A549 NSCLC, 21.6 µM in the assay on HCT-116 colon and 17.6 µM with SK-MEL-5 melanoma.
For the compound `COC(=O)[C@H](Cc1ccc(O)cc1)NC(=O)[C@@H](OC)[C@@H]1Cc2cc3cc(OC4CC(OC5CC(O)C(O)C(C)O5)C(O)C(C)O4)c(C)c(O)c3c(O)c2C(=O)[C@H]1OC1CC(OC2CC(OC3CC(C)(O)C(O)C(C)O3)C(O)C(C)O2)C(O)C(C)O1` (stereo not given in full), the GI50 was 0.405 µM in the assay with ACHN renal; 0.106 µM in the assay with HOP-62 NSCLC; 0.0584 µM in the assay on NCI-H522 lung; 0.0348 µM in the assay with SK-MEL-28 melanoma; 0.0357 µM with IGROV1 ovarian; 0.126 µM with MOLT-4 leukemia. The GI50 was 0.914 µM with UO-31 renal, 0.15 µM with A549 NSCLC, 0.0175 µM in the assay on HCT-116 colon and 0.0428 µM in the assay on SK-MEL-5 melanoma. The TGI is more than 25 µM in the assay with ACHN renal; more than 25 µM in the assay with HOP-62 NSCLC; more than 25 µM in the assay with NCI-H522 lung; 0.598 µM in the assay with SK-MEL-28 melanoma; more than 25 µM in the assay with IGROV1 ovarian; more than 25 µM in the assay on MOLT-4 leukemia. The TGI in the assay with UO-31 renal was more than 25 µM; with A549 NSCLC, more than 25 µM; in the assay with HCT-116 colon, more than 25 µM; with SK-MEL-5 melanoma, 0.448 µM.
On to `COC1CC(NC(=O)C(F)(F)F)C(OC(C)=O)C(C)O1` (stereo not given), for which the TGI in the assay on ACHN renal, with HOP-62 NSCLC, with NCI-H522 lung, in the assay with SK-MEL-28 melanoma, in the assay on IGROV1 ovarian and with MOLT-4 leukemia was more than 100 µM throughout. Also, the TGI with UO-31 renal, in the assay on A549 NSCLC, in the assay on HCT-116 colon and in the assay on SK-MEL-5 melanoma was more than 100 µM in each case.
For `COc1cc(OC)c(NC(=O)c2cc3ccccc3cc2O)cc1Cl`, the GI50 with ACHN renal is 2.51 µM; in the assay on HOP-62 NSCLC, 1.98 µM; in the assay on NCI-H522 lung it was 2.56 µM; in the assay on SK-MEL-28 melanoma, 3.6 µM; with IGROV1 ovarian, 2.03 µM; with MOLT-4 leukemia, 3.98 µM. Moreover, the GI50 with UO-31 renal was 1.71 µM; with A549 NSCLC, 3.38 µM; in the assay on HCT-116 colon it was 2.91 µM; in the assay with SK-MEL-5 melanoma it was 2.4 µM. Also, the TGI was 7.19 µM with ACHN renal; 6.84 µM in the assay with HOP-62 NSCLC; 6.12 µM in the assay with NCI-H522 lung; 17.3 µM with SK-MEL-28 melanoma; 11.2 µM in the assay on IGROV1 ovarian; 30.3 µM in the assay with MOLT-4 leukemia. For the same compound, the TGI with UO-31 renal turned out to be 8.33 µM; in the assay on A549 NSCLC, 10.5 µM; in the assay on HCT-116 colon, 10.1 µM; in the assay on SK-MEL-5 melanoma, 6.34 µM.
Take `C=C(CN1CCN(c2cccc(C(F)(F)F)n2)CC1)c1ccc(C(=S)Nc2ccccc2N)cc1`: the GI50 in the assay on ACHN renal is 3.88 µM; in the assay on HOP-62 NSCLC it was 8.08 µM; in the assay on NCI-H522 lung, 3.01 µM; with SK-MEL-28 melanoma, 6.95 µM; with IGROV1 ovarian, 6.93 µM; in the assay with MOLT-4 leukemia, 2.1 µM. Moreover, the GI50 was 4.14 µM in the assay on UO-31 renal, 3.32 µM in the assay on A549 NSCLC, 2.76 µM in the assay on HCT-116 colon and 1.46 µM in the assay on SK-MEL-5 melanoma. Also, the TGI in the assay on ACHN renal is more than 100 µM; in the assay on HOP-62 NSCLC it was more than 100 µM; with NCI-H522 lung, 31.4 µM; in the assay on SK-MEL-28 melanoma, 42.1 µM; in the assay with IGROV1 ovarian it was more than 100 µM; in the assay with MOLT-4 leukemia it was 6.4 µM. The TGI in the assay with UO-31 renal was more than 100 µM; in the assay on A549 NSCLC, more than 100 µM; with HCT-116 colon it was 19.8 µM; with SK-MEL-5 melanoma it was 3.17 µM.
As for `CCOC(=O)C(C)(C)C(O)C(C)C` (stereo not given), the TGI in the assay with ACHN renal, in the assay on HOP-62 NSCLC, with NCI-H522 lung, with SK-MEL-28 melanoma, in the assay with IGROV1 ovarian and in the assay on MOLT-4 leukemia was more than 100 µM each time. In addition, the TGI in the assay on UO-31 renal, in the assay on A549 NSCLC, in the assay on HCT-116 colon and with SK-MEL-5 melanoma was more than 100 µM in each case.
In the case of `C[n+]1ccc(-c2c3nc(c(-c4cc[n+](C)cc4)c4ccc([n-]4)c(-c4cc[n+](C)cc4)c4nc(c(-c5cc[n+](C)cc5)c5ccc2[n-]5)C=C4)C=C3)cc1.[I-].[Zn+2]`, the GI50 in the assay on ACHN renal is 15.5 µM; with HOP-62 NSCLC, 19.9 µM; in the assay on NCI-H522 lung, 1.61 µM; with SK-MEL-28 melanoma it was 5.54 µM; in the assay with IGROV1 ovarian, 25.4 µM; in the assay on MOLT-4 leukemia, 28.4 µM. In addition, the GI50 in the assay with UO-31 renal is 17.3 µM; in the assay on A549 NSCLC, 22.3 µM; in the assay on HCT-116 colon it was 50.5 µM; with SK-MEL-5 melanoma, 15.9 µM. The TGI was 36.2 µM with ACHN renal; 44.2 µM with HOP-62 NSCLC; 9.88 µM with NCI-H522 lung; 20 µM in the assay on SK-MEL-28 melanoma; 57.8 µM with IGROV1 ovarian; more than 100 µM in the assay with MOLT-4 leukemia. In addition, the TGI was 38.4 µM with UO-31 renal, 49.5 µM in the assay with A549 NSCLC, more than 100 µM in the assay with HCT-116 colon and 37.4 µM in the assay with SK-MEL-5 melanoma.
Take `CC/C(=C(/c1ccc(O)cc1)c1ccc(OCCN2CCCCC2)cc1)c1ccc(OC)cc1`: the GI50 was 1.94 µM in the assay with ACHN renal; 1.83 µM in the assay on HOP-62 NSCLC; 3.41 µM with NCI-H522 lung; 1.78 µM in the assay with SK-MEL-28 melanoma; 2.5 µM in the assay with IGROV1 ovarian; 1.6 µM in the assay on MOLT-4 leukemia. For the same compound, the GI50 in the assay with UO-31 renal is 1.13 µM; in the assay on A549 NSCLC, 4.11 µM; in the assay with HCT-116 colon, 1.15 µM; in the assay on SK-MEL-5 melanoma, 1.79 µM. The TGI was 4.15 µM in the assay with ACHN renal; 3.91 µM in the assay on HOP-62 NSCLC; 13.7 µM in the assay with NCI-H522 lung; 3.48 µM with SK-MEL-28 melanoma; 8.95 µM in the assay with IGROV1 ovarian; 5.71 µM in the assay on MOLT-4 leukemia. Besides, the TGI in the assay on UO-31 renal came out at 2.49 µM; with A549 NSCLC, 15.4 µM; with HCT-116 colon, 2.51 µM; with SK-MEL-5 melanoma, 3.21 µM.
